Laboratory results reported in patent US9023789B2, “Amylin analogs and pharmaceutical compositions thereof” (Novo Nordisk A/S, priority 2012, dated 2015).
Numbered stars: 1 amine (or outer) side, 2 acyl side, 3 side chain; on linkers, the order of the positions; unused ones are H or OH. Bridge positions count the residues as written; N and C are the ends. Side chains are listed from the residue outwards. Peptide text beside a SMILES is read from it. * marks the point of attachment. C20 diacid = O=C(O)CCCCCCCCCCCCCCCCCCC(=O)*; γGlu = O=C(O)[C@H](CCC(=O)[*:2])N[*:1]

Columns and labels:
[1] = biological target: T1, rat amylin receptor (rat calcitonin receptor + rat RAMP 3) (Rattus norvegicus, UniProt P32214+Q9JJ73); assay: ASSAY (VI) binding to the rat amylin receptor; conditions: for IC50: binding to rat amylin receptor, read-out: rAmylin-R bind IC50
T1 construct: expressed in transfected cells; host or cells: BHK tk'ts 13 (transient, FuGENE 6), membranes
T1 sequence (P32214 25-479 isoform P32214-2 limits assumed): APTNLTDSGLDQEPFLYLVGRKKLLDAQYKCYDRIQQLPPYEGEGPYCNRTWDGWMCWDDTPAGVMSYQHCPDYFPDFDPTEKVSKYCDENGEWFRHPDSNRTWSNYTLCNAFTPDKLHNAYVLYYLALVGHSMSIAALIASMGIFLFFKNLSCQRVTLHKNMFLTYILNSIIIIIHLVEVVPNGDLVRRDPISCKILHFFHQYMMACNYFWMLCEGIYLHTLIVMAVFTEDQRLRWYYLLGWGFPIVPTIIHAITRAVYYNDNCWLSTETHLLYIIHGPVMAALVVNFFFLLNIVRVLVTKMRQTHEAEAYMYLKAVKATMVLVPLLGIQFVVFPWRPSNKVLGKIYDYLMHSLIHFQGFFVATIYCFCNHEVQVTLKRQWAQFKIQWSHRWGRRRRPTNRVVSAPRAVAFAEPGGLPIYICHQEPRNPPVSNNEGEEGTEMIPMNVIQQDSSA
T1 sequence (Q9JJ73 23-147 partner): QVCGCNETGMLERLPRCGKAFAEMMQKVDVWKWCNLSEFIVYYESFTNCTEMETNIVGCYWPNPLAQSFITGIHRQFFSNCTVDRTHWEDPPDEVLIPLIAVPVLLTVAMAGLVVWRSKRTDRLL
In short: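 Binding to the rat amylin receptor was determined with membrane preparations. The receptor was expressed by transiently transfecting BHK tk′ts 13 cells with rat calcitonin receptor, using FuGENE® 6 (Roche) according to the manufacturer's recommendations. Roughly 48 hours later the cells were harvested and their membranes isolated.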

[2] = ASSAY (III) ThT fibrillation assay for physical stability; assay type: physicochemical
In short: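 Formulations with 1 μM ThT, pH adjusted as required, incubated at 37 °C with 960 rpm orbital shaking; fluorescence (ex 444/em 485 nm) read every 20 min. Fibrillation reported as mean ThT fluorescence ± SD of 4–8 replicates at time points; polypeptide concentration measured by reverse-phase HPLC before and after, post-centrifugation.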

[3] = Table 7, rat binding selectivity, rCTR IC50 / rAmylin-R IC50
[4] = Table 7a (preferred compounds), rat binding selectivity, rCTR IC50 / rAmylin-R IC50
[5] = ratio of rCTR bind IC50 to rAmylin-R bind IC50

Row | Structure (SMILES) | IC50 ([1]; Table 7) [nM] | Ratio rCT/rAmylin binding [1, 3] | Ratio rCT/rAmylin binding [1, 4] | Ratio rCT/rAmylin binding [1, 5] | ThT pH 4.0 lag time (h) [2] [h]
1 | CC[C@H](C)[C@H](NC(=O)[C@H](C)NC(=O)CNC(=O)[C@H](Cc1ccccc1)NC(=O)[C@H](CC(N)=O)NC(=O)[C@@H]1CCCN1C(=O)[C@H](CO)NC(=O)[C@H](CO)NC(=O)[C@H](Cc1c[nH]cn1)NC(=O)[C@H](CCCNC(=N)N)NC(=O)[C@H](CC(C)C)NC(=O)[C@H](Cc1ccccc1)NC(=O)[C@H](CCC(=O)O)NC(=O)[C@H](C)NC(=O)[C@H](CC(C)C)NC(=O)[C@H](CCCNC(=N)N)NC(=O)[C@H](CCC(N)=O)NC(=O)[C@@H](NC(=O)[C@H](C)NC(=O)[C@@H]1CSSC[C@H](NC(=O)[C@@H](N)CCCCNC(=O)CC[C@H](NC(=O)CC[C@H](NC(=O)CCCCCCCCCCCCCCCCCCC(=O)O)C(=O)O)C(=O)O)C(=O)N[C@@H](CC(N)=O)C(=O)N[C@@H]([C@@H](C)O)C(=O)N[C@@H](C)C(=O)N[C@@H]([C@@H](C)O)C(=O)N1)[C@@H](C)O)C(=O)N1CCC[C@H]1C(=O)N[C@@H](CO)C(=O)N[C@@H](CO)C(=O)N[C@H](C(=O)N[C@@H](CC(N)=O)C(=O)N[C@H](C(=O)NCC(=O)N[C@@H](CCCNC(=N)N)C(=O)N[C@@H](CCC(=O)O)C(=O)N[C@H](C(=O)N[C@@H](Cc1ccc(O)cc1)C(N)=O)[C@@H](C)O)C(C)C)[C@@H](C)O [Example 105] (H-K([γGlu-γGlu-C20 diacid])CNTATCATQRLAEFLRHSSPNFGAIPSSTNVGRETY-NH2; disulfide 2-7; N-terminus assumed) | 2.86 | 158.2 | 158.2 | 158.2 | 45
2 | CC[C@H](C)[C@H](NC(=O)[C@H](C)NC(=O)CNC(=O)[C@H](Cc1ccccc1)NC(=O)[C@H](CC(N)=O)NC(=O)[C@@H]1CCCN1C(=O)[C@H](CO)NC(=O)[C@H](CO)NC(=O)[C@H](Cc1c[nH]cn1)NC(=O)[C@H](CCCNC(=N)N)NC(=O)[C@H](CC(C)C)NC(=O)[C@H](Cc1ccccc1)NC(=O)[C@H](CC(=O)O)NC(=O)[C@H](C)NC(=O)[C@H](CC(C)C)NC(=O)[C@H](CCCNC(=N)N)NC(=O)[C@H](CCC(N)=O)NC(=O)[C@@H](NC(=O)[C@H](C)NC(=O)[C@@H]1CSSC[C@H](NC(=O)[C@@H](N)CCCCNC(=O)CC[C@H](NC(=O)CCCCCCCCCCCCCCCCCCC(=O)O)C(=O)O)C(=O)N[C@@H](CC(N)=O)C(=O)N[C@@H]([C@@H](C)O)C(=O)N[C@@H](C)C(=O)N[C@@H]([C@@H](C)O)C(=O)N1)[C@@H](C)O)C(=O)N1CCC[C@H]1C(=O)N[C@@H](CO)C(=O)N[C@@H](CO)C(=O)N[C@H](C(=O)N[C@@H](CC(N)=O)C(=O)N[C@H](C(=O)NCC(=O)N1CCC[C@H]1C(=O)N[C@@H](CCC(=O)O)C(=O)N[C@H](C(=O)N[C@@H](Cc1ccc(O)cc1)C(N)=O)[C@@H](C)O)C(C)C)[C@@H](C)O [Example 123] (H-K([γGlu-C20 diacid])CNTATCATQRLADFLRHSSPNFGAIPSSTNVGPETY-NH2; disulfide 2-7; N-terminus assumed) | 0.3 | 62.0 | 62.0 | 62.0 | 30
3 | CC[C@H](C)[C@H](NC(=O)[C@H](C)NC(=O)CNC(=O)[C@H](Cc1ccccc1)NC(=O)[C@H](CC(N)=O)NC(=O)[C@@H]1CCCN1C(=O)[C@H](CO)NC(=O)[C@H](CO)NC(=O)[C@H](Cc1c[nH]cn1)NC(=O)[C@H](CCCNC(=N)N)NC(=O)[C@H](CC(C)C)NC(=O)[C@H](Cc1ccccc1)NC(=O)[C@H](CC(N)=O)NC(=O)[C@H](C)NC(=O)[C@H](CC(C)C)NC(=O)[C@H](CCCNC(=N)N)NC(=O)[C@H](CCC(N)=O)NC(=O)[C@@H](NC(=O)[C@H](C)NC(=O)[C@@H]1CSSC[C@H](NC(=O)[C@H](CCCNC(=N)N)NC(=O)CNC(=O)CC[C@H](NC(=O)CCCCCCCCCCCCCCCCCCC(=O)O)C(=O)O)C(=O)N[C@@H](CC(N)=O)C(=O)N[C@@H]([C@@H](C)O)C(=O)N[C@@H](C)C(=O)N[C@@H]([C@@H](C)O)C(=O)N1)[C@@H](C)O)C(=O)N1CCC[C@H]1C(=O)N[C@@H](CO)C(=O)N[C@@H](CO)C(=O)N[C@H](C(=O)N[C@@H](CC(N)=O)C(=O)N[C@H](C(=O)NCC(=O)N[C@@H](CO)C(=O)N[C@@H](Cc1c[nH]cn1)C(=O)N[C@H](C(=O)N[C@@H](Cc1ccc(O)cc1)C(N)=O)[C@@H](C)O)C(C)C)[C@@H](C)O [Example 47] ({C20 diacid-γGlu}-GRCNTATCATQRLANFLRHSSPNFGAIPSSTNVGSHTY-NH2; disulfide 3-8) | 0.203 | 84.3 | 84.3 | 84.3 | 45
4 | CC[C@H](C)[C@H](NC(=O)[C@H](C)NC(=O)CNC(=O)[C@H](Cc1ccccc1)NC(=O)[C@H](CC(N)=O)NC(=O)[C@@H]1CCCN1C(=O)[C@H](CO)NC(=O)[C@H](CO)NC(=O)[C@H](Cc1c[nH]cn1)NC(=O)[C@H](CCCNC(=N)N)NC(=O)[C@H](CC(C)C)NC(=O)[C@H](Cc1ccccc1)NC(=O)[C@H](CC(=O)O)NC(=O)[C@H](C)NC(=O)[C@H](CC(C)C)NC(=O)[C@H](CCCNC(=N)N)NC(=O)[C@H](CCC(N)=O)NC(=O)[C@@H](NC(=O)[C@H](C)NC(=O)[C@@H]1CSSC[C@H](NC(=O)[C@@H](N)CCCCNC(=O)CC[C@H](NC(=O)CCCCCCCCCCCCCCCCCCC(=O)O)C(=O)O)C(=O)N[C@@H](CC(N)=O)C(=O)N[C@@H]([C@@H](C)O)C(=O)N[C@@H](C)C(=O)N[C@@H]([C@@H](C)O)C(=O)N1)[C@@H](C)O)C(=O)N1CCC[C@H]1C(=O)N[C@@H](CO)C(=O)N[C@@H](CO)C(=O)N[C@H](C(=O)N[C@@H](CC(N)=O)C(=O)N[C@H](C(=O)NCC(=O)N1CCC[C@H]1C(=O)N[C@@H](CCCNC(=N)N)C(=O)N[C@H](C(=O)N[C@@H](Cc1ccc(O)cc1)C(N)=O)[C@@H](C)O)C(C)C)[C@@H](C)O [Example 129] (H-K([γGlu-C20 diacid])CNTATCATQRLADFLRHSSPNFGAIPSSTNVGPRTY-NH2; disulfide 2-7 (inferred); N-terminus assumed) | 0.504 | 116.0 | 116.0 | 116.0 | 45
5 | CC[C@H](C)[C@H](NC(=O)[C@H](C)NC(=O)CNC(=O)[C@H](Cc1ccccc1)NC(=O)[C@H](CC(N)=O)NC(=O)[C@@H]1CCCN1C(=O)[C@H](CO)NC(=O)[C@H](CO)NC(=O)[C@H](Cc1c[nH]cn1)NC(=O)[C@H](CCCNC(=N)N)NC(=O)[C@H](CC(C)C)NC(=O)[C@H](Cc1ccccc1)NC(=O)[C@H](Cc1c[nH]cn1)NC(=O)[C@H](C)NC(=O)[C@H](CC(C)C)NC(=O)[C@H](CCCNC(=N)N)NC(=O)[C@H](CCC(N)=O)NC(=O)[C@@H](NC(=O)[C@H](C)NC(=O)[C@@H]1CSSC[C@H](NC(=O)[C@@H](N)CCCCNC(=O)CC[C@H](NC(=O)CCCCCCCCCCCCCCCCCCC(=O)O)C(=O)O)C(=O)N[C@@H](CC(N)=O)C(=O)N[C@@H]([C@@H](C)O)C(=O)N[C@@H](C)C(=O)N[C@@H]([C@@H](C)O)C(=O)N1)[C@@H](C)O)C(=O)N1CCC[C@H]1C(=O)N[C@@H](CO)C(=O)N[C@@H](CO)C(=O)N[C@H](C(=O)N[C@@H](CC(N)=O)C(=O)N[C@H](C(=O)NCC(=O)N1CCC[C@H]1C(=O)N[C@@H](CC(N)=O)C(=O)N[C@H](C(=O)N[C@@H](Cc1ccc(O)cc1)C(N)=O)[C@@H](C)O)C(C)C)[C@@H](C)O [Example 67] (H-K([γGlu-C20 diacid])CNTATCATQRLAHFLRHSSPNFGAIPSSTNVGPNTY-NH2; disulfide 2-7 (inferred); N-terminus assumed) | 0.172 | 85.4 | 85.4 | 85.4 | 26
